Laboratory results as given in US8263757B2, “Promiscuous HER-2/Neu CD4 T cell epitopes” (Dendreon Corporation, priority 2006, dated 2012).

Test system: T cell clone HER500.23c21
Assay: HLA-DR restriction: blocking anti-MHC class II antibodies in HERp270-284 stimulation of HER500.23c21 (IFNγ ELISA)
Format: cell-based, human
Details: antibody blocking with anti-HLA-DR and anti-HLA-DP/-DQ
Description: FIG. 3. HLA-DR Restriction. Autologous EBV-LcL at 2×10^5 cells/mL and HERp270-284 was used to stimulate the T cell clone HER500.23c21 (1×10^5 cells/well), with and without the addition of blocking anti-MHC class II antibodies. Anti-HLA-DR ♦ and anti-HLA-DQ/anti-HLA-DP ▪ were titrated at the concentrations shown in cRPMI+10% FBS. Wells also contained EBV-LcLs, HER500.23c21T cell clone and peptide (1 μg/mL). Assay was incubated for 48 hours at 37° C. with 5% CO2. Supernatants were harvested and frozen at −20° C. and at a later date, analyzed for IFNγ production using ELISA. Multiple experiments were performed, mean triplicate values for one representative experiment is shown.
HLA-DR Restriction and Promiscuity. To determine HLA-DR restriction of the T cell epitope HERp270-284, anti-HLA-DR mAb L243, HLA-DQ mAb 1a3 or HLA-DP mAb B7/21 (20-1.25 μg/mL) were cultured with T cell clone HER.23c21, peptide HERp270-284 and autologous EBV-LcL in cRPMI+10% FBS media. Supernatants were harvested after 48 hours and tested for IL-2 and IFNγ production. […]
In order to determine which HLA molecules were responsible for presenting HERp270-284 to HER500.23c21, HLA-blocking antibodies were used to inhibit presentation and T cell activation. […] T cell stimulation was determined by IFNγ production.

Sequence: ALVTYNTDTFESMPN (HER-2/Neu peptide 270-284, HER500 peptide #63, HERp270-284, HER-2/Neu epitope 270-284, residues 3-17 of SEQ ID NO1) [Peptide 63]
- HLA restriction of HER500.23c21 recognition: HLA-DR restricted
